Measured values published in patent US20070066616A1, “Inhibitors for extracellular signal-regulated kinase docking domains and uses therefor” (priority 2005, published 2007).
“Also recorded” adds a separate entry of the source.

Legend:
[1] = system: ERK-mediated phosphorylation of Rsk-1 on Thr573; test: ERK-mediated Rsk-1 phosphorylation (Thr573), immunoblot and densitometry in EGF-stimulated HeLa cells; assay type: cell-based, human; conditions: immunoblot
Method: Prior to harvesting, cells were pre-incubated with the test compounds for 15-20 minutes and then stimulated with EGF or anisomycin to activate the ERK or p38 MAP kinase pathways, respectively. Control and treated cells were washed twice with cold phosphate buffered saline (PBS, pH 7.2; Invitrogen) and proteins were collected following cell lysis with 300 μl of cold tissue lysis buffer (20 mM Tris, pH 7.4, 137 mM NaCl, 2 mM EDTA, 1% Triton X-100, 0.1% SDS, 25 mM β-glycerophosphate, 2 mM sodium pyrophosphate, 10% glycerol, 1 mM sodium orthovanadate, 1 mM phenylmethylsulfonyl fluoride (PMSF), 1 mM benzamidine), allowed to incubate on ice for about 10 minutes and then centrifuged at 20,000 (X g) to clarify the lysates of insoluble material. The lysates then were diluted with an equal volume of 2X SDS-sample buffer and the proteins were separated on SDS-PAGE for immunoblot analysis. Immunoblot analysis was done as previously described (41-43).
All compounds were subjected to assays of ERK specific phosphorylation of Rsk-1 and/or Elk-1 as examined by immunoblot analysis using phosphorylation specific antibodies. In FIG. 5A HeLa cells were cultured in 24 well plates and pretreated for 20-30 minutes with […] of the selected test compounds. The cells were stimulated with epidermal growth factor (EGF, 50 ng/ml) for 5 minutes to activate the ERK pathway. Cell lysates were collected and immunoblotted for ERK-mediated phosphorylation of Rsk-1 on Thr573. As shown, EGF treatment alone caused a robust increase in Thr573 phosphorylation on Rsk-1 in the absence of test compounds. The presence of test compounds had inhibitory effects on ERK-mediated Rsk-1 phosphorylation.
Compounds 86-98 were first tested for inhibition of ERK mediated phosphorylation of the transcription factor Elk-1, which is an important regulator of cell proliferation. Cells were treated with EGF to activate the ERK pathway and phosphorylation of Elk-1 on the ERK site at S383 was detected by immunoblot analysis (FIG. 5C). […] The effects of the test compounds were also tested with Rsk-1, another ERK substrate involved in regulating cell proliferation.

ERK2 = target: T1, ERK2 (Mus musculus, UniProt P63085); test: Fluorescence titration (quenching of intrinsic ERK2 fluorescence); assay type: binding
T1 construct: (His)x6; made in house; host or cells: bacteria
T1 sequence (P63085 whole entry): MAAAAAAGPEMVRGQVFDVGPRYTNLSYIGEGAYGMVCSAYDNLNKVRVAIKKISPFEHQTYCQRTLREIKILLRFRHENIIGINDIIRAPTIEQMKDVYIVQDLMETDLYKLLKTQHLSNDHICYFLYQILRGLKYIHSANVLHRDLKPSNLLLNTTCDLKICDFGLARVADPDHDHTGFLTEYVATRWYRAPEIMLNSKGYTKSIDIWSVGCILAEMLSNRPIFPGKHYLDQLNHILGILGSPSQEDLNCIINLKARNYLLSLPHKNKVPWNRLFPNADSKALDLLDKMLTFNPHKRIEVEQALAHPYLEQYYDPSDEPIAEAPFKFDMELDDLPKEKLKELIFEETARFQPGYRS
Method: Experiments measure the changes in the intrinsic ERK2 fluorescence due to the presence of aromatic amino acids, with the indole group of tryptophan being the major fluorophore with absorption and emission maxima around 280 and 340 nanometers (nm), respectively. Fluorescence spectra were recorded with a Luminescence Spectrometer LS50 (Perkin Elmer, Boston, Mass.). For all experiments, ERK2 protein was diluted into 20 mM Tris-HCl, pH 7.5. Titrations were performed by increasing the test compound concentration while maintaining the ERK2 protein concentration at 3 μM.
The excitation wavelength was 295 nm and fluorescence was monitored from 300 to 500 nm. All reported fluorescence intensities are relative values and are not corrected for wavelength variations in detector response. Dissociation constants, KD, were determined using reciprocal plots, 1/ν vs 1/[I], where ν represents the percent occupied sites calculated assuming fluorescence quenching to be directly proportion to the percentage of occupied binding sites, [I] represents the concentration of the inhibitor compound and the slope of the curve equals the KD (48-49).
ERK2 contains three tryptophans, which have intrinsic fluorescence. Fluorescence quenching of ERK2 by the test compounds is indicative of binding interactions and potential protein conformational changes.

CCOc1ccc(C=C2SC(=O)N(CCN)C2=O)cc1 [Compound 76]
effect on ERK-mediated Rsk-1 phosphorylation (in words) [1]: highest inhibition | y-intercept of reciprocal plot (indicating a single binding site) (ERK2; 1/ν vs 1/[I] plot): 1.8 | ERK2 fluorescence quenching / binding (in words) (ERK2; fluorescence titration): strong quenching; also recorded: bind to directly ERK2
